# Assay results reported in publication PMC8222276 (Communications Biology, 2021).
# Columns and labels:
# [1] = target: T1, AM1 receptor (CLR-RAMP2) in HUVECs (Homo sapiens, UniProt O60895+Q16602); test: antagonism of agonist-induced cAMP accumulation in HUVECs; assay type: cell-based; details: HUVEC; 100 nM
# T1 construct: HUVECs specifically express the AM1 receptor alone; host or cells: primary HUVECs
# Description: (§1) All primary cell lines were cultured as above. On the day of the experiment media was removed and cells washed with PBS, before being dissociated with Trypsin-EDTA 0.05% (Gibco, UK) and then resuspended in PBS/BSA (0.1%) (Sigma, UK). Cells were immediately plated for use in cAMP assay as per the manufacturer’s instructions, reagents used were provided by the LANCE® cAMP detection assay kit (PerkinElmer, Boston, MA, USA), in 384 well optiplates (PerkinElmer (Boston, MA, USA)) at 2000 cells/well in 5 μl aliquots. […] Cells were incubated with compound for 30 min prior to adding detection buffer[28],[60]. Plates were incubated for a further 60 min (room temperature) and then read on a plate reader (Mithras LB 940 microplate reader (Berthold technologies, Germany)). All responses were normalised to 100μM forskolin (Tocris, UK). Antagonist studies were performed in the same way through co-stimulation of the relevant concentration. Alongside control-treated cell. Experiments with PTX (Sigma, UK) required pretreatment (16 h) prior to assays.
# [2] = target: T2, CGRP receptor (CLR-RAMP1) in human cardiomyocytes (HCMs) (Homo sapiens, UniProt O60894+Q16602); test: antagonism of agonist-induced cAMP accumulation in HCMs; assay type: cell-based; details: HCM; 100 nM
# T2 construct: primary human cardiomyocytes (HCMs) since these cells only expressed CLR and RAMP1; host or cells: primary human cardiomyocytes (HCMs)
# Description: as §1
# AM receptors = details: at concentrations of up to 10 micromolar; ref Doods et al., Br. J. Pharmacol., 129, (2000), pp. 420-423; cited from earlier work
# [3] = target: T1, AM1 receptor (CLR-RAMP2) in HUVECs; test: cAMP accumulation in HUVECs; assay type: cell-based; details: HUVEC; calcitonin receptor agonists
# Description: (§2) Data are analysed using a three-parameter non-linear regression curve or the operational model of receptor agonism. g–h Signalling bias plots were calculated as ∆Log(τ/KA) (g) or ∆∆Log(τ/KA) (h) for each agonist and for each signalling pathway. […] Solid arrows indicate known pathways. Dashed arrows represent possible pathways.
# All primary cell lines were cultured as above. On the day of the experiment media was removed and cells washed with PBS, before being dissociated with Trypsin-EDTA 0.05% (Gibco, UK) and then resuspended in PBS/BSA (0.1%) (Sigma, UK). […] Plates were incubated for a further 60 min (room temperature) and then read on a plate reader (Mithras LB 940 microplate reader (Berthold technologies, Germany)). […]
# (§3) All sample sizes were determined, and data analysed, in accordance with the guidelines described by Curtis M et al.[65]. […] Statistical differences were analysed using one-way ANOVA followed by Dunnett’s post-hoc (for comparisons amongst more than two groups) or unpaired Student’s t test with Welch’s correction (for comparison between two groups). […] Having obtained values for τ and KA these were then used to quantify signalling bias as the change in Log(τ/KA)[19],[28]. […]
# HUVECs = test: cell proliferation (72 h) of HUVECs; assay type: cell-based, human; details: HUVEC, 72 h
# Description: as §2
# Both endothelial cell lines and HCMs were seeded at a density of 2500 cells/well in a clear flat bottom 96-well plate (Corning, UK) and incubated at 37 °C in 5% CO2. After 24 h, cells were exposed to test compounds or vehicle, in complete endothelial cell growth media (HUVECs) or myocyte growth media (HCMs). Cells were incubated for a further 72 h at 37 °C in 5% CO2. After 72 h incubation, 5 μl of Cell Counting Kit–8 (CCK-8, Sigma, UK) was added to each well and cells were then incubated for another 2 h at 37 °C in 5% CO2 and in the dark[61]. The absorbance of each well was measured using a Mithras LB940 microplate reader with an excitation of 450 nm. The absorbance is directly proportional to the number of viable cells. Cell proliferation was calculated as a percentage of number of cells treated with vehicle alone.
# (§4) All sample sizes were determined, and data analysed, in accordance with the guidelines described by Curtis M et al.[65]. All experiments were appropriately controlled using ‘system pathway’ agonists. If any of these pathway controls generated inappropriate responses, then the entire data set was removed from analysis. […] Data analysis for cAMP accumulation, Ca^2+i mobilisation, NO accumulation, pERK1/2 activation, and cell proliferation assays were performed in GraphPad Prism 8.4 (GraphPad Software, San Diego). Data were fitted to obtain concentration–response curves using either the three-parameter logistic equation using to obtain values of Emax and pEC50 or the operational model of agonism. Statistical differences were analysed using one-way ANOVA followed by Dunnett’s post-hoc (for comparisons amongst more than two groups) or unpaired Student’s t test with Welch’s correction (for comparison between two groups). To account for the day-to-day variation experienced from the cultured cells, we used the maximal level of cAMP accumulation from cells in response to 100 μM forskolin stimulation was used as a reference, 10 μM ionomycin for Ca^2+i assays, 10 μM phorbol 12-myristate 13-acetate (PMA) for pERK1/2 activation, 10 μM acetylcholine for NO production and 10 μM VEGF for cell proliferation. […] Where appropriate the operational model for receptor agonism[27] was used to obtain efficacy (τ) and equilibrium disassociation constant (KA) values. In both cases, this normalisation removes the variation due to differences in days but retains the variance for control values. The means of individual experiments were combined to generate the curves shown. Having obtained values for τ and KA these were then used to quantify signalling bias as the change in Log(τ/KA)[19],[28]. Error for this composite measure was propagated by applying Eq. 1.1 PooledSEM=(SEMA)^2+(SEMB)^2 Where, SEMA and SEMB are the standard error of measurement A and B.
# [4] = target: T1, AM1 receptor (CLR-RAMP2) in HUVECs; test: mobilisation of Ca2+i in HUVECs; assay type: cell-based; details: HUVEC; Gαq/11/14 inhibitor co-treatment, 100 nM
# Description: as §2
# All cell lines were plated at 20,000 cells/well on 96-well black clear-bottom plates (Costar, UK) 24 h before the experiment. […] Cells were then washed twice with calcium-free HBSS, then were left in 100 μl calcium-free HBSS for the duration of the assay. […] Data was normalised to the response seen with 10 μM Ionomycin.
# as §3, with “al.[65]. All experiments were appropriately controlled using ‘system pathway’ agonists. If any of these pathway controls generated inappropriate responses, then the entire data set was removed from analysis.” for “al.[65].”
# [5] = target: T1, AM1 receptor (CLR-RAMP2) in HUVECs; test: total nitric oxide production in HUVECs; assay type: cell-based; details: HUVEC
# Description: as §2
# Endothelial cells and HCMs were cultured as above. 24 h prior to assay cells were plated on Costar 96-well black clear bottom plates at 40,000 cells/well. The assay was performed according to the manufacturer’s protocol. Briefly, cells pre-incubated with NO dye and assay buffer 1 (Fluorometric Nitric Oxide Assay Kit, Abcam, UK) for 30 min at 37 °C in 5% CO2. Any inhibitors requiring 30 min pre-treatment (YM/L-NAME/DMSO control) were added at this point. Ligand stimulation occurred immediately after this for 15 min at 37 °C in 5% CO2. Stain and ligand solution was removed, assay buffer II was added, and wells were read immediately. The absorbance was measured using a Tecan T200 (Thermo Fisher Scientific UK) reader with an excitation/emission of 540/590 nm. Endothelial cell responses were normalised to 10 μM acetylcholine. HCM responses were normalised to 10 μM isoproterenol[63],[64].
# as §4
# T1 sequence (Q16602 23-461): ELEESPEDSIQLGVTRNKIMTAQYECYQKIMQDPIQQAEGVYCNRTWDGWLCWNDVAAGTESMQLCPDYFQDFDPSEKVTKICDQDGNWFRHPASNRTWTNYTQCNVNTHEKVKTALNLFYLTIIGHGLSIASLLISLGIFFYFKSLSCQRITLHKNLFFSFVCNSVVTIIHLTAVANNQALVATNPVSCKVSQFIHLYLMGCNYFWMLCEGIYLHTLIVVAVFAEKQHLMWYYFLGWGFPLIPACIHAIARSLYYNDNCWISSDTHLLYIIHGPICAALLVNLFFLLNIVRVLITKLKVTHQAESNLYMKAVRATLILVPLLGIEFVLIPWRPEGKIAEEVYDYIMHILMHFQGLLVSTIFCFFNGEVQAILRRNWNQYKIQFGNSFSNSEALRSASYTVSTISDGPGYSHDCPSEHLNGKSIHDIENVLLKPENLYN
# T1 sequence (O60895 43-175): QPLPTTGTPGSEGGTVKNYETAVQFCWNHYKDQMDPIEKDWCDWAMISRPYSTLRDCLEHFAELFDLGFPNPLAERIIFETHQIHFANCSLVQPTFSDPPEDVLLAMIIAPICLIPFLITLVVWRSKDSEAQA
# T2 sequence (Q16602 23-461): as the sequence (Q16602 23-461) above
# T2 sequence (O60894 27-148): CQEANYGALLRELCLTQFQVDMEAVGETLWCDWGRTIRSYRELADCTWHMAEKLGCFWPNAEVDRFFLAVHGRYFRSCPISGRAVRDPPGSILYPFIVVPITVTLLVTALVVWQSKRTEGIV
compound,measurement,setting,value
NCCCC[C@H](NC(=O)[C@@H](Cc1cc(Br)c(O)c(Br)c1)NC(=O)N1CCC(N2Cc3ccccc3NC2=O)CC1)C(=O)N1CCN(c2ccncc2)CC1 [olcegepant],effect on agonist-induced cAMP accumulation,[1],had little effect
same,effect on cAMP accumulation for all three agonists,[2],inhibit cAMP accumulation for all three agonists
same,action on AM receptors,AM receptors,no actions on AM receptors
"amylin: calcitonin receptor agonist (KCNTATCATQRLANFLVHSSNNFGAILSSTNVGSNTY; Islet amyloid polypeptide; UniProt P10997 34-70, looked up)",functional response,[3],unable to detect the presence of its transcript (Fig. 1a) or obtain a functional response
C=C[C@@]1(C)CC(=O)[C@]2(O)[C@@]3(C)[C@@H](O)CCC(C)(C)[C@@H]3[C@H](O)[C@H](OC(C)=O)[C@@]2(C)O1 [forskolin],effect of forskolin on cell proliferation,HUVECs,concentration-dependent inhibition of cell proliferation
YM-254890,effect of YM-254890 on Ca2+i responses,[4],all responses could be abolished
same,effect of YM-254890 on NO release,[5],abolished all NO release
calcitonin: calcitonin receptor agonist,functional response,[3],unable to detect the presence of its transcript (Fig. 1a) or obtain a functional response
